According to PubChem BioAssay (NCI):
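How tested: cells in 96-well plates exposed to compound for 48 hours at five concentrations. Here, GI50 denotes the concentration required for 50% inhibition of growth. Definition used: TGI = concentration required for complete inhibition of growth.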

Legend:
Assay in all cases: growth of human tumour cells (NCI), 48 h; in the data active = GI50 below about 0.43 µM; inactive = the rest
NCI-H23 lung = test system: NCI-H23 lung
NCI-H460 lung = test system: NCI-H460 lung
NCI-H522 lung = test system: NCI-H522 lung
NCI/ADR-RES ovarian = test system: NCI/ADR-RES ovarian
OVCAR-3 ovarian = test system: OVCAR-3 ovarian
OVCAR-4 ovarian = test system: OVCAR-4 ovarian
OVCAR-5 ovarian = test system: OVCAR-5 ovarian
OVCAR-8 ovarian = test system: OVCAR-8 ovarian
PC-3 prostate = test system: PC-3 prostate
RPMI-8226 leukemia = test system: RPMI-8226 leukemia
RXF 393 renal = test system: RXF 393 renal
SF-268 CNS = test system: SF-268 CNS
SF-295 CNS = test system: SF-295 CNS
SF-539 CNS = test system: SF-539 CNS
SK-MEL-2 melanoma = test system: SK-MEL-2 melanoma
SK-MEL-28 melanoma = test system: SK-MEL-28 melanoma
SK-MEL-5 melanoma = test system: SK-MEL-5 melanoma
SK-OV-3 ovarian = test system: SK-OV-3 ovarian
SN12C renal = test system: SN12C renal
SNB-19 CNS = test system: SNB-19 CNS
SR leukemia = test system: SR leukemia
SW-620 colon = test system: SW-620 colon
T-47D breast = test system: T-47D breast
TK-10 renal = test system: TK-10 renal
U251 CNS = test system: U251 CNS
UACC-257 melanoma = test system: UACC-257 melanoma
UACC-62 melanoma = test system: UACC-62 melanoma
UO-31 renal = test system: UO-31 renal

Cc1csc(Nc2nc(-c3cccc(Cl)c3)nc(C(Cl)(Cl)Cl)n2)n1
15.7 µM: TGI (UO-31 renal)
28 µM: TGI (UACC-257 melanoma)
3.53 µM: TGI (OVCAR-3 ovarian)
19.9 µM: TGI (U251 CNS)
5.42 µM: TGI (NCI-H460 lung)
6.44 µM: TGI (RXF 393 renal)
7.85 µM: TGI (PC-3 prostate)
14.4 µM: TGI (TK-10 renal)
inactive: GI50 (NCI-H460 lung) 1.22 µM | GI50 (NCI-H522 lung) > 33.3 µM | GI50 (NCI/ADR-RES ovarian) 4.15 µM | GI50 (OVCAR-3 ovarian) 1.06 µM | GI50 (OVCAR-4 ovarian) 10.7 µM | GI50 (OVCAR-5 ovarian) 8.86 µM | GI50 (OVCAR-8 ovarian) 7.77 µM | GI50 (PC-3 prostate) 1.27 µM | GI50 (RPMI-8226 leukemia) 1.22 µM | GI50 (RXF 393 renal) 1.12 µM | GI50 (SF-268 CNS) 6.48 µM | GI50 (SF-295 CNS) 1.29 µM | GI50 (SF-539 CNS) 2.04 µM | GI50 (SK-MEL-2 melanoma) 25.8 µM | GI50 (SK-MEL-28 melanoma) 3.53 µM | GI50 (SK-MEL-5 melanoma) > 33.3 µM | GI50 (SK-OV-3 ovarian) 8.69 µM | GI50 (SN12C renal) 13.5 µM | GI50 (SNB-19 CNS) 3.27 µM | GI50 (SR leukemia) 16.8 µM | GI50 (SW-620 colon) 2.21 µM | GI50 (T-47D breast) 1.04 µM | GI50 (TK-10 renal) 2.51 µM | GI50 (U251 CNS) 1.4 µM | GI50 (UACC-257 melanoma) 3.53 µM | GI50 (UACC-62 melanoma) 6.73 µM | GI50 (UO-31 renal) 2.38 µM
9.89 µM: TGI (SF-295 CNS)
> 33.3 µM: TGI (NCI-H23 lung) | TGI (NCI-H522 lung) | TGI (NCI/ADR-RES ovarian) | TGI (OVCAR-4 ovarian) | TGI (OVCAR-5 ovarian) | TGI (OVCAR-8 ovarian) | TGI (RPMI-8226 leukemia) | TGI (SF-268 CNS) | TGI (SK-MEL-2 melanoma) | TGI (SK-MEL-28 melanoma) | TGI (SK-MEL-5 melanoma) | TGI (SK-OV-3 ovarian) | TGI (SN12C renal) | TGI (SNB-19 CNS) | TGI (SR leukemia) | TGI (SW-620 colon) | TGI (UACC-62 melanoma)
11.7 µM: TGI (SF-539 CNS)
8.54 µM: TGI (T-47D breast)
